Results published in patent US6150385A, “1,3,4-thiadiazoles useful for the treatment of CMV infections” (Pharmacia & Upjohn Company, priority 1999, dated 2000).

What follows are molecules tested against T1, HCMV polymerase (Human cytomegalovirus, UniProt P08546) (assay: HCMV polymerase assay (scintillation proximity assay)). Details: percentage of inhibition at 25 μM concentration in CMV polymerase assay.
T1 construct: made in house; host or cells: SF-9 insect cells infected with recombinant baculovirus
T1 sequence (P08546 whole entry): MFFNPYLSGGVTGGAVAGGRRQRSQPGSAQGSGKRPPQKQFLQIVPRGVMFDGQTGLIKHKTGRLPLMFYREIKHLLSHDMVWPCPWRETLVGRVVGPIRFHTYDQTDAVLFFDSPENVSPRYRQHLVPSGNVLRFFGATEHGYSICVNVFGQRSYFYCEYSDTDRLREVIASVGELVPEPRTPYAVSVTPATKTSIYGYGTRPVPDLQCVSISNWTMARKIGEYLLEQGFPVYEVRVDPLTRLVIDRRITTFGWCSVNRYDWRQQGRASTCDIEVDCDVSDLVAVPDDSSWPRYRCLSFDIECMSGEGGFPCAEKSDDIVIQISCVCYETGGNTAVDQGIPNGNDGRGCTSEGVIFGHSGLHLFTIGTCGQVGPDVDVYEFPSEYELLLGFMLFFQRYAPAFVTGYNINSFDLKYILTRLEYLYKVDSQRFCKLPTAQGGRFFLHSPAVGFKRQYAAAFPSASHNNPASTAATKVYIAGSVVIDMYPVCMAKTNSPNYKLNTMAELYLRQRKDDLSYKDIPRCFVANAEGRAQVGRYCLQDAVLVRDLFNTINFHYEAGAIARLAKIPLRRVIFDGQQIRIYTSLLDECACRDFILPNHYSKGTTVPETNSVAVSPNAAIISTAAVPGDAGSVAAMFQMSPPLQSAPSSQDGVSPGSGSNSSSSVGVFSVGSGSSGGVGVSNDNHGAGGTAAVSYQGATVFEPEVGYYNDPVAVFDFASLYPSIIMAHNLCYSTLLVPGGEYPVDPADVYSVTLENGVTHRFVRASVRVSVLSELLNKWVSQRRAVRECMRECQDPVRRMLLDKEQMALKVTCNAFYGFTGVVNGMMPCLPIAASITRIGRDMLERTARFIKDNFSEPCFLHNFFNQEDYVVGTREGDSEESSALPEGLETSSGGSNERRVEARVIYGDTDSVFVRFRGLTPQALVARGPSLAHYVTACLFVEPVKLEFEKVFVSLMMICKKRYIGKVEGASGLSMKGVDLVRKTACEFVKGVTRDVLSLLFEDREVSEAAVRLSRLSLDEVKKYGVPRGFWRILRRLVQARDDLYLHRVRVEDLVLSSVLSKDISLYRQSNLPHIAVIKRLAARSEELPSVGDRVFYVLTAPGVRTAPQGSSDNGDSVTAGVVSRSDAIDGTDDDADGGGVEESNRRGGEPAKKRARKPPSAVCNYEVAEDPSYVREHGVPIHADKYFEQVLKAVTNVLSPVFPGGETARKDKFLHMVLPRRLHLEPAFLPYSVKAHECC
Assay type: biochemical
Outline: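 Baculovirus/SF-9-expressed HCMV polymerase in 5.4 mM HEPES pH 7.5, 11.7 mM KCl, 4.5 mM MgCl2, 0.36 mg/ml BSA, 90 nM 3H-dTTP, with or without 2 mM CHAPS. Started with 6 nM biotinylated poly(dA)-oligo(dT), 30 min at 25 or 37 °C, EDTA-stopped, read by streptavidin-SPA counting; % inhibition at 25 μM.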
Molecule `CC(C)(C)CNc1nnc(NC(=O)/C=C/c2ccccc2Cl)s1` [compound 319, (E)-3-(2-chlorophenyl)-N-[5-(neopentylamino)-1,3,4-thiadiazol-2-yl]-2-propenamide] has an inhibition at 25 µM of 33.5%.
With `CC1(C)C2CC[C@@H](CNc3nnc(NC(=O)/C=C/c4ccccc4Cl)s3)C1C2` (stereo partly drawn) [compound 320, (E)-3-(2-chlorophenyl)-N-[5-({[(2R)-6,6-dimethylbicyclo[3.1.1]hept-2-yl]methyl}amino)-1,3,4-thiadiazol-2-yl]-2-propenamide] the inhibition at 25 µM was 33.5%.
`O=C(CCCCCl)Nc1nnc(NCc2ccc(F)cc2)s1` [compound 321, 5-chloro-N-{5-[(4-fluorobenzyl)amino]-1,3,4-thiadiazol-2-yl}pentanamide] gave an inhibition at 25 µM of 33.2%.
`O=C(/C=C/c1ccccc1Cl)Nc1nnc(NCCSc2ccccc2)s1` [compound 322, (E)-3-(2-chlorophenyl)-N-(5-{[2-(phenylsulfanyl)ethyl]amino}-1,3,4-thiadiazol-2-yl)-2-propenamide] gave an inhibition at 25 µM of 33.2%.
With `Cc1ccc(C(=O)Nc2nnc(NC3CCCCCC3)s2)cc1` [compound 323, N-[5-(cycloheptylamino)-1,3,4-thiadiazol-2-yl]-4-methylbenzamide] the inhibition at 25 µM was 33%.
For `O=C(Nc1nnc(NCCCn2ccnc2)s1)c1ccc(I)cc1` [compound 324, N-(5-{[3-(1H-imidazol-1-yl)propyl]amino}-1,3,4-thiadiazol-2-yl)-4-iodobenzamide], the inhibition at 25 µM was 32.9%.
`O=C(CCCCCl)Nc1nnc(NCCCN2CCCC2=O)s1` [compound 325, 5-chloro-N-(5-{[3-(2-oxo-1-pyrrolidinyl)propyl]amino}-1,3,4-thiadiazol-2-yl)pentanamide] gave an inhibition at 25 µM of 32.8%.
`O=C(/C=C/c1ccccc1)Nc1nnc(NCc2ccc(F)cc2)s1` [compound 326, (E)-N-{5-[(4-fluorobenzyl)amino]-1,3,4-thiadiazol-2-yl}-3-phenyl-2-propenamide] showed an inhibition at 25 µM of 32.7%.
Work on `COc1ccccc1C(=O)Nc1nnc(NCCc2ccccc2)s1` [compound 327, 2-methoxy-N-[5-(phenethylamino)-1,3,4-thiadiazol-2-yl]benzamide] yielded an inhibition at 25 µM of 32.5%.
Work on `CCOc1ccc2ccccc2c1C(=O)Nc1nnc(NCCc2ccc(S(N)(=O)=O)cc2)s1` [compound 328, N-(5-{[4-(aminosulfonyl)phenethyl]amino}-1,3,4-thiadiazol-2-yl)-2-ethoxy-1-naphthamide] yielded an inhibition at 25 µM of 32.4%.
For `O=C(/C=C/c1ccccc1)Nc1nnc(NCc2cccc3ccccc23)s1` [compound 329, (E)-N-{5-[(1-naphthylmethyl)amino]-1,3,4-thiadiazol-2-yl}-3-phenyl-2-propenamide], the inhibition at 25 µM was 32.4%.
In the case of `O=C(Nc1nnc(NCCc2c[nH]cn2)s1)c1cc2ccccc2s1` [compound 330], the inhibition at 25 µM was 32.2%.
`O=C(/C=C/c1ccccc1)Nc1nnc(NCCC(c2ccccc2)c2ccccc2)s1` [compound 331, (E)-N-{5-[(3,3-diphenylpropyl)amino]-1,3,4-thiadiazol-2-yl}-3-phenyl-2-propenamide] gave an inhibition at 25 µM of 32.1%.
With `CC(=O)NCCNc1nnc(NC(=O)c2c(C(C)C)cc(C(C)C)cc2C(C)C)s1` [compound 332, N-(5-{[2-(acetylamino)ethyl]amino}-1,3,4-thiadiazol-2-yl)-2,4,6-triisopropylbenzamide] the inhibition at 25 µM was 32%.
Work on `O=C(/C=C/c1ccccc1)Nc1nnc(NCc2ccc(Cl)c(Cl)c2)s1` [compound 333, (E)-N-{5-[(3,4-dichlorobenzyl)amino]-1,3,4-thiadiazol-2-yl}-3-phenyl-2-propenamide] yielded an inhibition at 25 µM of 31.9%.
`COc1ccccc1C(=O)Nc1nnc(NCc2cccc3ccccc23)s1` [compound 334, 2-methoxy-N-{5-[(1-naphthylmethyl)amino]-1,3,4-thiadiazol-2-yl}benzamide] showed an inhibition at 25 µM of 31.8%.
`N#Cc1ccc(C(=O)Nc2nnc(NCCc3ccc(S(N)(=O)=O)cc3)s2)cc1` [compound 335, N-(5-{[4-(aminosulfonyl)phenethyl]amino}-1,3,4-thiadiazol-2-yl)-4-cyanobenzamide] gave an inhibition at 25 µM of 31.7%.
`CCCCCCCC/C=C/CCCCCCCC(=O)Nc1nnc(NCCc2ccc(S(N)(=O)=O)cc2)s1` [compound 336, (E)-N-(5-{[4-(aminosulfonyl)phenethyl]amino}-1,3,4-thiadiazol-2-yl)-9-octadecenamide] showed an inhibition at 25 µM of 31.6%.
`O=C(Nc1nnc(NCCc2cccs2)s1)c1cccc([N+](=O)[O-])c1` [compound 337, 3-nitro-N-(5-{[2-(2-thienyl)ethyl]amino}-1,3,4-thiadiazol-2-yl)benzamide] was tested, and the inhibition at 25 µM was 31.6%.
Work on `CC(C)(C)OC(=O)CCNc1nnc(NC(=O)c2c(Cl)cccc2Cl)s1` [compound 338, tert-butyl 3-({5-[(2,6-dichlorobenzoyl)amino]-1,3,4-thiadiazol-2-yl}amino)propanoate] yielded an inhibition at 25 µM of 31.6%.
With `O=C(Nc1nnc(NCCNc2ccccc2)s1)c1ccc(I)cc1` [compound 339, N-{5-[(2-anilinoethyl)amino]-1,3,4-thiadiazol-2-yl}-4-iodobenzamide] the inhibition at 25 µM was 31.5%.
Work on `CC(C)(C)OC(=O)CCNc1nnc(NC(=O)c2ccc3c(c2)C(=O)OC3=O)s1` [compound 340, tert-butyl 3-[(5-{[(1,3-dioxo-1,3-dihydro-2-benzofuran-5-yl)carbonyl]amino}-1,3,4-thiadiazol-2-yl)amino]propanoate] yielded an inhibition at 25 µM of 31.5%.
Molecule `O=C(Nc1nnc(NCc2ccco2)s1)c1ccc(I)cc1` [compound 341, N-{5-[(2-furylmethyl)amino]-1,3,4-thiadiazol-2-yl}-4-iodobenzamide] has an inhibition at 25 µM of 31.3%.
`CCCCCCCCCCCNc1nnc(NC(=O)/C=C/c2ccccc2)s1` [compound 342, (E)-3-phenyl-N-[5-(undecylamino)-1,3,4-thiadiazol-2-yl]-2-propenamide] showed an inhibition at 25 µM of 31.2%.
In the case of `O=C(Nc1nnc(NC2CCCc3ccccc32)s1)c1cc2ccccc2s1` (stereo not drawn) [compound 343, N-[5-(1,2,3,4-tetrahydro-1-naphthalenylamino)-1,3,4-thiadiazol-2-yl]-1-benzothiophene-2-carboxamide], the inhibition at 25 µM was 31.2%.
`CCOC(=O)N1CCC(Nc2nnc(NC(=O)/C=C/c3ccccc3Cl)s2)CC1` [compound 344] was tested, and the inhibition at 25 µM was 31.1%.
In the case of `N#Cc1ccc(C(=O)Nc2nnc(NCCc3ccccc3)s2)cc1` [compound 345, 4-cyano-N-[5-(phenethylamino)-1,3,4-thiadiazol-2-yl]benzamide], the inhibition at 25 µM was 30.9%.
`O=C(CCCCCl)Nc1nnc(NCCc2c[nH]c3ccccc23)s1` [compound 346, 5-chloro-N-(5-{[2-(1H-indol-3-yl)ethyl]amino}-1,3,4-thiadiazol-2-yl)pentanamide] gave an inhibition at 25 µM of 30.7%.
In the case of `O=C(Nc1nnc(NC2CCCc3ccccc32)s1)c1cccc([N+](=O)[O-])c1` (stereo not drawn) [compound 347, 3-nitro-N-[5-(1,2,3,4-tetrahydro-1-naphthalenylamino)-1,3,4-thiadiazol-2-yl]benzamide], the inhibition at 25 µM was 30.6%.
`COc1ccccc1C(=O)Nc1nnc(NCc2ccc(F)cc2)s1` [compound 348, N-{5-[(4-fluorobenzyl)amino]-1,3,4-thiadiazol-2-yl}-2-methoxybenzamide] was tested, and the inhibition at 25 µM was 30.4%.
Work on `O=C(Nc1nnc(NCc2ccco2)s1)c1cc2ccccc2s1` [compound 349, N-{5-[(2-furylmethyl)amino]-1,3,4-thiadiazol-2-yl}-1-benzothiophene-2-carboxamide] yielded an inhibition at 25 µM of 30.3%.
`O=C(Nc1nnc(NCc2ccc(Cl)c(Cl)c2)s1)c1ccc([N+](=O)[O-])o1` [compound 350, N-{5-[(3,4-dichlorobenzyl)amino]-1,3,4-thiadiazol-2-yl}-5-nitro-2-furamide] showed an inhibition at 25 µM of 30.3%.
`O=C(Nc1nnc(NCCc2c[nH]c3ccccc23)s1)c1ccc(Br)cc1` [compound 351, 4-bromo-N-(5-{[2-(1H-indol-3-yl)ethyl]amino}-1,3,4-thiadiazol-2-yl)benzamide] showed an inhibition at 25 µM of 30.3%.
`O=C(/C=C/c1ccccc1Cl)Nc1nnc(NCc2ccncc2)s1` [compound 352, (E)-3-(2-chlorophenyl)-N-[5-[(4-pyridinylmethyl)amino]-1,3,4-thiadiazol-2-yl}-2-propenamide] showed an inhibition at 25 µM of 30.2%.
With `O=C(/C=C/c1ccccc1Cl)Nc1nnc(NC2CC2)s1` [compound 353, (E)-3-(2-chlorophenyl)-N-[5-(cyclopropylamino)-1,3,4-thiadiazol-2-yl]-2-propenamide] the inhibition at 25 µM was 30.2%.
`O=C(CCCCCl)Nc1nnc(NCCc2ccccc2)s1` [compound 354, 5-chloro-N-[5-(phenethylamino)-1,3,4-thiadiazol-2-yl]pentanamide] was tested, and the inhibition at 25 µM was 29.9%.
Molecule `O=C(Nc1nnc(NC2CCc3ccccc32)s1)c1cccc([N+](=O)[O-])c1` (stereo not drawn) [compound 355, N-[5-(2,3-dihydro-1H-inden-1-ylamino)-1,3,4-thiadiazol-2-yl]-3-nitrobenzamide] has an inhibition at 25 µM of 29.8%.
With `Cc1ccc(C(=O)Nc2nnc(NCCCCc3ccccc3)s2)cc1` [compound 356, 4-methyl-N-{5-[(4-phenylbutyl)amino]-1,3,4-thiadiazol-2-yl}benzamide] the inhibition at 25 µM was 29.6%.
Work on `O=C(/C=C/c1ccccc1Cl)Nc1nnc(NCCCCc2ccccc2)s1` [compound 357, (E)-3-(2-chlorophenyl)-N-{5-[(4-phenylbutyl)amino]-1,3,4-thiadiazol-2-yl}-2-propenamide] yielded an inhibition at 25 µM of 29.4%.
For `CC(C)c1cc(C(C)C)c(C(=O)Nc2nnc(NCc3ccc4c(c3)OCO4)s2)c(C(C)C)c1` [compound 358, N-{5-[(1,3-benzodioxol-5-ylmethyl)amino]-1,3,4-thiadiazol-2-yl}-2,4,6-triisopropylbenzamide], the inhibition at 25 µM was 29.3%.
In the case of `Cc1ccc(C(=O)Nc2nnc(NCCc3ccccc3)s2)cc1` [compound 359, 4-methyl-N-[5-(phenethylamino)-1,3,4-thiadiazol-2-yl]benzamide], the inhibition at 25 µM was 29.1%.
Work on `O=C(/C=C/c1ccccc1)Nc1nnc(NCC2CCCCC2)s1` [compound 360, (E)-N-{5-[(cyclohexylmethyl)amino]-1,3,4-thiadiazol-2-yl}-3-phenyl-2-propenamide] yielded an inhibition at 25 µM of 29%.
